“And” between values parts separate entries of the source, which are not always exact repeats. Identical values can stand only once.
Legend:
Type in all cases: in vivo, beagle dogs
B. burgdorferi [1] = assay: Study B: QC6 ELISA in tick-infected dogs; conditions: 8 dogs/group
Text: (§1) Three outer surface proteins (Osp) on B. burgdorferi are important for diagnosis and prevention, and are expressed by the organism in response to its local environment. […] OspF is another surface protein that is generally observed in late-stage disease. The C in […] refers to a 25-amino acid, C6 peptide in the sixth invariable region of an outer membrane lipoprotein (VIsE). Antibody against C6 is highly accurate as a serologic diagnosis of Lyme disease independent of a subject's (e.g., canine) vaccination status. Further, the generation of C6 antibodies implies an active infection with viable spirochetes. Serological methods for detecting B. burgdorfer/Lyme disease were conducted using the IDEXX qualitative SNAP-4Dx ELISA and the Quantitative C6 (Quant C6 or QC6) diagnostic kits, which are enzyme linked immunosorbent assays against the previously described 25-amino-acid C6 peptide. QC6 ELISA data, units/mL, are useful for guidance in initiating and evaluating response to therapy (See Levy S A, O'Connor T P, Hanscom J L, Shields P, et al. Quantitative measurement of a C6 antibody following antibiotic treatment of Borrelia burgdorferi antibody-positive, nonclinical dogs. Clin Vacc Immunol 2008; 15(1):115-119 and Littman M P, Goldstein R E, Labato M A, et al. ACVIM Small Animal Concensus Statement on Lyme Disease in Dogs: Diagnosis, Treatment and Prevention. J Vet Intern Med 2006; 20: 422-434).
(§2) Thirty-two (18 male and 14 female) beagle dogs were sero-negative for Borrelia burgdorferi, not vaccinated with any Borrelia spp vaccines, and acclimated at the study facility for seven days. The study was conducted under National Research Council guidelines (1996). […] Field-caught Ixodes from the northeast USA were placed on the dogs without containment chambers for 10 days; after ticks fed to repletion, dogs were treated with two applications of an approved topical acaricide with a 30-day interval between applications.
(§3) Forty days post-challenge, and prior to antibiotic treatments, blood was collected from each dog as were two skin biopsy punch samples near tick attachment sites. Blood was collected approximately monthly post-treatment. Skin biopsies were taken near the tick attachment site on Days 48/49, 118, 146, 180, and 315. Serum antibodies to Borrelia were assayed using the IDEXX SNAP-4Dx and QC6 ELISA. In cooperation with Cornell University, serum samples were analyzed using fluorescent-bead-based multiplex assays detecting antibodies against B. burgdorferi outer surface proteins OspA, OspC, and OspF. Data were expressed as median fluorescent intensities (MFI), and shown to be specific and sensitive to provide interpretative guidelines regarding infection. The skin biopsies were collected for a polymerase chain reaction (PCR; FlaB) assay and cultured for spirochete detection. At the end of the study, blood and skin biopsies were collected and synovial tissue from the joints were harvested at necropsy.
(§4) On Day 75 and Day 89 Convenia was administered to the eight dogs in T04 (8 mg/kg bodyweight; subcutaneous injection). The other treated groups received their respective regimens daily and orally for 30 days from Days 75 to 104. […] Dogs in T01 served as infected, untreated, controls. Inter-treatment comparisons to evaluate antibiotic efficacy included clinical signs, serology, culture results and pathology.

B. burgdorferi [2] = assay: Study B: SNAP-4Dx ELISA in tick-infected dogs; conditions: for SNAP-4Dx Positives, Number of Dogs: N = 8/group
Text: as §1, §2, §3, §4

[3] = system: B. burgdorferi outer surface protein OspC; assay: Study B: fluorescent-bead-based multiplex assay, antibodies against OspC; conditions: Day 281
Protocol: as §2
as §3, with “At the end of the study, blood and skin biopsies were collected and synovial tissue from the joints were harvested at necropsy.” left out

[4] = system: B. burgdorferi outer surface protein OspF; assay: Study B: fluorescent-bead-based multiplex assay, antibodies against OspF; conditions: for Multiplex Assay OspF: No. Dogs > Positive Threshold (# dogs > 1500): 8 dogs/group
Protocol: as §2
as §3, with “Data were expressed as median fluorescent intensities (MFI), and shown to be specific and sensitive to provide interpretative guidelines regarding infection.” left out
On Day 75 and Day 89 Convenia was administered to the eight dogs in T04 (8 mg/kg bodyweight; subcutaneous injection). The other treated groups received their respective regimens daily and orally for 30 days from Days 75 to 104. […] Dogs in T01 served as infected, untreated, controls.

B. burgdorferi [5] = assay: Study B: microscopic examination of joints and skin at necropsy; conditions: for Number of Joints with Changes as Described for Lyme disease: N = 8
Protocol: as §2, §3, §4
At necropsy ten joints were harvested per each dog, formalin-fixed, stained and examined microscopically. Joints included the carpus, elbow, shoulder, stifle and tarsus on both the right and left limbs. Further, a section of skin near tick attachment sites was evaluated from each dog. There were two dogs in the Convenia group (25%) with tissues showing changes as described for Lyme disease, compared to seven controls (87.5%) and three (37.5%) to four (50.0%) dogs in the other antibiotic-treated groups (Table 7). […] The Convenia group had the lowest incidence of joint changes with six affected of 80.

[6] = joints, skin, 8 dogs/group, necropsy

CC1(C)S[C@@H]2[C@H](NC(=O)[C@H](N)c3ccc(O)cc3)C(=O)N2[C@H]1C(=O)O [amoxicillin]
Dogs Sero-converted to B. burgdorferi per QC6 ELISA (≧30 U/mL), (%) (B. burgdorferi [1]; Day 48 (pre-treatment)): 100.0% | Number of Dogs Sero-converted to B. burgdorferi per QC6 ELISA (≧30 U/mL), No. (B. burgdorferi [1]; Day 48 (pre-treatment)): 8 | Dogs Sero-converted to B. burgdorferi per QC6 ELISA (≧30 U/mL), (%) (B. burgdorferi [1]; Day 111): 75.0% | Number of Dogs Sero-converted to B. burgdorferi per QC6 ELISA (≧30 U/mL), No. (B. burgdorferi [1]; Day 111): 6 | Dogs Sero-converted to B. burgdorferi per QC6 ELISA (≧30 U/mL), (%) (B. burgdorferi [1]; Day 145): 0.0% | Number of Dogs Sero-converted to B. burgdorferi per QC6 ELISA (≧30 U/mL), No. (B. burgdorferi [1]; Day 145): 0 | Dogs Sero-converted to B. burgdorferi per QC6 ELISA (≧30 U/mL), (%) (B. burgdorferi [1]; Day 179): 0.0% | Number of Dogs Sero-converted to B. burgdorferi per QC6 ELISA (≧30 U/mL), No. (B. burgdorferi [1]; Day 179): 0 | Dogs Sero-converted to B. burgdorferi per QC6 ELISA (≧30 U/mL), (%) (B. burgdorferi [1]; Day 221): 0.0% | Number of Dogs Sero-converted to B. burgdorferi per QC6 ELISA (≧30 U/mL), No. (B. burgdorferi [1]; Day 221): 0 | Dogs Sero-converted to B. burgdorferi per QC6 ELISA (≧30 U/mL), (%) (B. burgdorferi [1]; Day 251): 0.0% | Number of Dogs Sero-converted to B. burgdorferi per QC6 ELISA (≧30 U/mL), No. (B. burgdorferi [1]; Day 251): 0 | Dogs Sero-converted to B. burgdorferi per QC6 ELISA (≧30 U/mL), (%) (B. burgdorferi [1]; Day 281): 0.0% | Number of Dogs Sero-converted to B. burgdorferi per QC6 ELISA (≧30 U/mL), No. (B. burgdorferi [1]; Day 281): 0 | Dogs Sero-converted to B. burgdorferi per QC6 ELISA (≧30 U/mL), (%) (B. burgdorferi [1]; Day 314): 0.0% | Number of Dogs Sero-converted to B. burgdorferi per QC6 ELISA (≧30 U/mL), No. (B. burgdorferi [1]; Day 314): 0 | SNAP-4Dx Positives, Number of Dogs (B. burgdorferi [2]; Day 48 (pre-treatment; antibiotics from Day 75)): 5 | SNAP-4Dx Positives, Number of Dogs (B. burgdorferi [2]; Day 111): 7 | SNAP-4Dx Positives, Number of Dogs (B. burgdorferi [2]; Day 145): 3 | SNAP-4Dx Positives, Number of Dogs (B. burgdorferi [2]; Day 179): 2 | SNAP-4Dx Positives, Number of Dogs (B. burgdorferi [2]; Day 221): 0 | SNAP-4Dx Positives, Number of Dogs (B. burgdorferi [2]; Day 251): 0 | SNAP-4Dx Positives, Number of Dogs (B. burgdorferi [2]; Day 281): 0 | SNAP-4Dx Positives, Number of Dogs (B. burgdorferi [2]; Day 315): 0 | SNAP-4Dx Positives, Number of Dogs (B. burgdorferi [2]; Day −15 (pre-infection)): 0 | SNAP-4Dx positive dogs (B. burgdorferi [2]; rest of the study after Day 179): none positive | Number of dogs above infected threshold (antibody-OspC) [3]: one | Multiplex Assay OspF: MFI Mean ([4]; Day 48 (pre-treatment)): 1083.75 MFI | Multiplex Assay OspF: No. Dogs > Positive Threshold (# dogs > 1500) ([4]; Day 48 (pre-treatment)): 2 | Multiplex Assay OspF: No. Dogs > Positive Threshold (# dogs > 1500) ([4]; Day 111): three and 3 | Multiplex Assay OspF: MFI Mean ([4]; Day 145): 458.13 MFI | Multiplex Assay OspF: No. Dogs > Positive Threshold (# dogs > 1500) ([4]; Day 145): 0 | Multiplex Assay OspF: MFI Mean ([4]; Day 179): 327.88 MFI | Multiplex Assay OspF: No. Dogs > Positive Threshold (# dogs > 1500) ([4]; Day 179): 0 | Multiplex Assay OspF: MFI Mean ([4]; Day 221): 269.63 MFI | Multiplex Assay OspF: No. Dogs > Positive Threshold (# dogs > 1500) ([4]; Day 221): 0 | Multiplex Assay OspF: MFI Mean ([4]; Day 251): 288.63 MFI | Multiplex Assay OspF: No. Dogs > Positive Threshold (# dogs > 1500) ([4]; Day 251): 0 | Multiplex Assay OspF: MFI Mean ([4]; Day 281): 288.88 MFI | Multiplex Assay OspF: No. Dogs > Positive Threshold (# dogs > 1500) ([4]; Day 281): 0 | Multiplex Assay OspF: MFI Mean ([4]; Day 314): 278.25 MFI | Multiplex Assay OspF: No. Dogs > Positive Threshold (# dogs > 1500) ([4]; Day 314): 0 | Multiplex Assay OspF: MFI Mean ([4]; Day −15 (pre-infection)): 133.38 MFI | Multiplex Assay OspF: No. Dogs > Positive Threshold (# dogs > 1500) ([4]; Day −15 (pre-infection)): 0 | Antibody-OspF status of dogs ([4]; after Day 111): all dogs negative thereafter | Number of Joints with Changes as Described for Lyme disease, Cumulative (B. burgdorferi [5]; 80 total/group): 12 | Number of Joints with Changes as Described for Lyme disease (B. burgdorferi [5]; Carpus L): 2 | Number of Joints with Changes as Described for Lyme disease (B. burgdorferi [5]; Carpus R): 2 | Number of Joints with Changes as Described for Lyme disease (B. burgdorferi [5]; Elbow L): 1 | Number of Joints with Changes as Described for Lyme disease (B. burgdorferi [5]; Elbow R): 1 | Number of Joints with Changes as Described for Lyme disease (B. burgdorferi [5]; Shoulder L): 0 | Number of Joints with Changes as Described for Lyme disease (B. burgdorferi [5]; Shoulder R): 1 | Number of Joints with Changes as Described for Lyme disease (B. burgdorferi [5]; Stifle L): 1 | Number of Joints with Changes as Described for Lyme disease (B. burgdorferi [5]; Stifle R): 2 | Number of Joints with Changes as Described for Lyme disease (B. burgdorferi [5]; Tarsus L): 1 | Number of Joints with Changes as Described for Lyme disease (B. burgdorferi [5]; Tarsus R): 1 | No Tissue Changes, # Dogs (B. burgdorferi [5]; [6]): 4 | No Tissue Changes, % (B. burgdorferi [5]; [6]): 50% | Tissue Changes Described for Lyme Disease, # Dogs (B. burgdorferi [5]; [6]): 4 | Tissue Changes Described for Lyme Disease, % (B. burgdorferi [5]; [6]): 50%
